Measured values reported in patent US20210038730A1, “PEPTIDE NANOFIBERS” (UNIVERSITY OF PORTSMOUTH HIGHER EDUCATION CORPORATION, priority 2018, published 2021).
Converted amounts (≈) assume the structure as drawn. Read-outs that look alike come from different tables or passages of the source.

Experiments:
[1] = Enzymatic stability in MDA-MB-231 cell homogenates
Experimental: (§1) Fresh blood, obtained from adult male Wistar rats, was collected in sterile the 170 I.U. lithium heparin-coated tubes (Vacutainer, BD Bioscience, UK). Blood was centrifuged immediately at 2,000 g for 15 minutes (4° C.) and supernatant was collected and diluted to 50% (v/v) with PBS. Livers and brains were obtained from adult male Wistar rats, and the tissues were blotted to dryness, weighed, sliced into pieces, and homogenised with ice-cold PBS (in 2 mL of buffer g^−1 of tissue) using the glass homogeniser. Then, tissue homogenates were centrifuged at 4,300 g for 1 hour (4° C.) and the supernatants collected. Glioblastoma cell homogenates were prepared using U-87 MG cells. Cells were cultured in Eagle's Minimum Essential Medium (EMEM) supplemented with 10% (v/v) heat-inactivated fetal bovine serum (FBS), 1% (v/v) of non-essential amino acids (NEAA) and 1 mM of sodium pyruvate in T75 flasks with a surface area of 75 cm^2 and maintained in a humidified atmosphere of 5% CO2 at 37° C. Breast cancer cell homogenates were prepared using MDA-MB-231 cells. Cells were cultured in Dulbecco's Modified Eagle Medium (DMEM) supplemented with high levels of glucose (4.5 g/L), 10% (v/v) heat-inactivated fetal bovine serum (FBS), 1% (v/v) of non-essential amino acids (NEAA) and penicillin and streptomycin (500 units/mL) in T75 flasks with a surface area of 75 cm^2 and maintained in a humidified atmosphere of 5% CO2 at 37° C. Media was changed for both cell lines every 3 to 4 days. After reaching confluence, cells were washed twice with Hank's Balanced Salt Solution (HBSS) and incubated with ˜2 mL of TrypLE Enzyme at 37° C. for ˜3 minutes. Then, complete media were added, and cells were centrifuged at 1,000 rpm for 5 minutes in C-28A centrifuge (Boeco, Germany). U-87 MG or MDA-MB-231 cells (˜10×10^6 cells mL^−1) were re-suspended in ice-cold PBS, and homogenised with a 2×5 second pulses with the probe sonicator (UP200S Ultrasonic processor, SciMed, 200 watts, amplitude of 60%). Cell debris were removed by centrifugation at 2,000 rpm for 5 minutes (Jouan B4i, Thermo Scientific, Paisley, UK). Supernatant was collected and stored at −80° C. Total protein concentration in the homogenates was determined using the Bradford assay with bovine serum albumin as a standard. Diluted plasma, tissue or cell homogenates were pre-warmed during ˜30 minutes at 37° C. Peptide stock solutions (Glu-GnRH, goserelin acetate and TPGnRH, 5 mM in PBS, 500 μL) were prepared and added to the homogenate solutions (120 μL). PAX-loaded nanofibers prepared at a ratio of 1:7.36 [PAX:TPGnRH consisting of 3 μmol (2.56 mg mL^−1) of PAX, 22.02 μmol (31.46 mg mL^−1) of TPGnRH], as previously described, and further diluted in PBS to achieve a concentration of 5 mM of TPGnRH and 500 nM of PAX (120 μL) were added to the homogenates. At various time intervals, an aliquot was collected (80 μL) and added to ice-cold ACN (80 μL) to quench the enzymatic activity. Samples were stored at −80° C. for at least 3 hours to maximise protein precipitation. Samples were vortexed for 15 minutes, centrifuged for 15 minutes at 12,000 rpm, and the supernatants were collected and analysed by RP-HPLC.

[2] = Enzymatic stability in rat liver homogenates; details: 50% (v/v) rat liver homogenates; analyte in brackets of label
Experimental: as §1

[3] = molecular target: T1, GnRH-R expressed on glioblastoma cells (Homo sapiens, UniProt P30968); assay: Receptor binding by single molecule force spectroscopy; details: for koff: read-out: Dissociation Rate (Koff)
T1 construct: GnRH peptides to the GnRH-R expressed on glioblastoma cells; endogenous in cells; host or cells: U-87 MG, UP-007, UP-029, SEBTA-023 glioblastoma cells (living)
T1 sequence (P30968 1-328): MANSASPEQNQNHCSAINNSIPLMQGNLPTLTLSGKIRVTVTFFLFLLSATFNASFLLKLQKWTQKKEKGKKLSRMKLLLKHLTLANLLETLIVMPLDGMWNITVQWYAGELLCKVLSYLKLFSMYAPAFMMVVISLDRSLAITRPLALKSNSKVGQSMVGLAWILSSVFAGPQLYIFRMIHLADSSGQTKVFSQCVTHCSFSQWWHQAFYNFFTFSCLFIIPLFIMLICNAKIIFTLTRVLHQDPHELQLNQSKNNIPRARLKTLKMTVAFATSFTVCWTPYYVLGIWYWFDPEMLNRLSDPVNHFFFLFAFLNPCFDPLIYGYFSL
Experimental: The binding of the GnRH analogues to GnRH-R was assessed using single molecule force spectroscopy (SMFS) and Topography and Recognition (TREC) imaging based on AFM. AFM tips were functionalised with Glu-GnRH, goserelin acetate and […] as a monomer and nanofibers using a previously described method ^9, 10. Silicon nitride (6-20 pN/nm spring constant, Bruker, Mass., USA) and magnetically coated […] tips (Keysight, Calif., USA) were used for SMFS and TREC studies, respectively. […] Subsequently, acetal groups were converted into aldehyde groups by immersing the tips in a 1% (w/v) citric acid solution for 10 minutes. […] Following an incubation of 2 hours, the free aldehyde groups were inactivated by ethanolamine for 10 minutes. AFM tips were washed with PBS three times and stored at 4° C. […] Loading rates were calculated by multiplying the pulling velocity (v) with the effective spring constant (keff). Spring constants were determined by the thermal-noise method. The force-distance curves were acquired using PicoView 1.12 (Agilent Technologies, Inc., California, USA) and analysed in Matlab 8.1 software (MathWorks, Massachusetts, USA). […] Amplitude-distance curves were collected on a glass coverslip to adjust the free oscillation amplitude, and to determine the optimal amplitude reduction value for driving the feedback loop during the imaging. Free amplitude of cantilever oscillation was 30 nm and the excitation frequency was set to 9 kHz.

[4] = Enzymatic stability in rat brain homogenates; details: 50% (v/v) rat brain homogenates
Experimental: (§2) Fresh blood, obtained from adult male Wistar rats, was collected in sterile the 170 I.U. lithium heparin-coated tubes (Vacutainer, BD Bioscience, UK). Blood was centrifuged immediately at 2,000 g for 15 minutes (4° C.) and supernatant was collected and diluted to 50% (v/v) with PBS. Livers and brains were obtained from adult male Wistar rats, and the tissues were blotted to dryness, weighed, sliced into pieces, and homogenised with ice-cold PBS (in 2 mL of buffer g^−1 of tissue) using the glass homogeniser. Then, tissue homogenates were centrifuged at 4,300 g for 1 hour (4° C.) and the supernatants collected. Glioblastoma cell homogenates were prepared using U-87 MG cells. Cells were cultured in Eagle's Minimum Essential Medium (EMEM) supplemented with 10% (v/v) heat-inactivated fetal bovine serum (FBS), 1% (v/v) of non-essential amino acids (NEAA) and 1 mM of sodium pyruvate in T75 flasks with a surface area of 75 cm^2 and maintained in a humidified atmosphere of 5% CO2 at 37° C. Breast cancer cell homogenates were prepared using MDA-MB-231 cells. Cells were cultured in Dulbecco's Modified Eagle Medium (DMEM) supplemented with high levels of glucose (4.5 g/L), 10% (v/v) heat-inactivated fetal bovine serum (FBS), 1% (v/v) of non-essential amino acids (NEAA) and penicillin and streptomycin (500 units/mL) in T75 flasks with a surface area of 75 cm^2 and maintained in a humidified atmosphere of 5% CO2 at 37° C. Media was changed for both cell lines every 3 to 4 days. After reaching confluence, cells were washed twice with Hank's Balanced Salt Solution (HBSS) and incubated with ˜2 mL of TrypLE Enzyme at 37° C. for ˜3 minutes. Then, complete media were added, and cells were centrifuged at 1,000 rpm for 5 minutes in C-28A centrifuge (Boeco, Germany). U-87 MG or MDA-MB-231 cells (˜10×10^6 cells mL^−1) were re-suspended in ice-cold PBS, and homogenised with a 2×5 second pulses with the probe sonicator (UP200S Ultrasonic processor, SciMed, 200 watts, amplitude of 60%). Cell debris were removed by centrifugation at 2,000 rpm for 5 minutes (Jouan B4i, Thermo Scientific, Paisley, UK). Supernatant was collected and stored at −80° C. Total protein concentration in the homogenates was determined using the Bradford assay with bovine serum albumin as a standard. Diluted plasma, tissue or cell homogenates were pre-warmed during ˜30 minutes at 37° C. Peptide stock solutions (Glu-GnRH, goserelin acetate and TPGnRH, 5 mM in PBS, 500 μL) were prepared and added to the homogenate solutions (120 μL). […] Samples were vortexed for 15 minutes, centrifuged for 15 minutes at 12,000 rpm, and the supernatants were collected and analysed by RP-HPLC.

[5] = Enzymatic stability in rat plasma; details: 50% (v/v) rat plasma
Experimental: as §2

GnRH-R on U-87 MG cells = molecular target: T2, GnRH-R on U-87 MG cells (Homo sapiens, UniProt P30968); assay: SMFS blocking experiments with free GnRH-R ligands; format: binding
T2 construct: endogenous in cells; host or cells: U-87 MG
T2 sequence (P30968 1-328): T1 sequence (P30968 1-328)
Experimental: Blocking experiments were performed with different GnRH-R ligands (anti-GnRH-R antibody, Glu-GnRH, goserelin acetate, and TPGnRH). U-87 MG cells were analysed with tips functionalised with TPGnRH nanofibers and then the free ligands were added at a final concentration of 1 μg mL^−1 (anti-GnRH-R antibody) or 50 μg mL^−1 (Glu-GnRH, goserelin acetate and TPGnRH). U-87 MG cells treated with ligands were incubated for, at least, one hour at room temperature, and then the same cells were analysed with the same TPGnRH-functionalised tip at the same location in the cell.

[6] = Enzymatic stability in U-87 MG cell homogenates
Experimental: Fresh blood, obtained from adult male Wistar rats, was collected in sterile the 170 I.U. lithium heparin-coated tubes (Vacutainer, BD Bioscience, UK). Blood was centrifuged immediately at 2,000 g for 15 minutes (4° C.) and supernatant was collected and diluted to 50% (v/v) with PBS. Livers and brains were obtained from adult male Wistar rats, and the tissues were blotted to dryness, weighed, sliced into pieces, and homogenised with ice-cold PBS (in 2 mL of buffer g^−1 of tissue) using the glass homogeniser. Then, tissue homogenates were centrifuged at 4,300 g for 1 hour (4° C.) and the supernatants collected. Glioblastoma cell homogenates were prepared using U-87 MG cells. Cells were cultured in Eagle's Minimum Essential Medium (EMEM) supplemented with 10% (v/v) heat-inactivated fetal bovine serum (FBS), 1% (v/v) of non-essential amino acids (NEAA) and 1 mM of sodium pyruvate in T75 flasks with a surface area of 75 cm^2 and maintained in a humidified atmosphere of 5% CO2 at 37° C. Breast cancer cell homogenates were prepared using MDA-MB-231 cells. Cells were cultured in Dulbecco's Modified Eagle Medium (DMEM) supplemented with high levels of glucose (4.5 g/L), 10% (v/v) heat-inactivated fetal bovine serum (FBS), 1% (v/v) of non-essential amino acids (NEAA) and penicillin and streptomycin (500 units/mL) in T75 flasks with a surface area of 75 cm^2 and maintained in a humidified atmosphere of 5% CO2 at 37° C. Media was changed for both cell lines every 3 to 4 days. After reaching confluence, cells were washed twice with Hank's Balanced Salt Solution (HBSS) and incubated with ˜2 mL of TrypLE Enzyme at 37° C. for ˜3 minutes. Then, complete media were added, and cells were centrifuged at 1,000 rpm for 5 minutes in C-28A centrifuge (Boeco, Germany). […] Total protein concentration in the homogenates was determined using the Bradford assay with bovine serum albumin as a standard. […] Samples were vortexed for 15 minutes, centrifuged for 15 minutes at 12,000 rpm, and the supernatants were collected and analysed by RP-HPLC.

in vitro = details: human
Experimental: In order to test the permeability of TPGnRH nanofibers across the blood-brain barrier (BBB), a static contact co-culture was set up according to a previous method^7. Briefly, human astrocytes (SC-1800, 25,000 cells/well) were seeded on the abluminal side of a 24-well plate Transwell polycarbonate membrane (3 μm of a pore size, Corning Star, Deeside, UK) coated with human fibronectin. Cells were allowed to attach for 3 days, and then human brain microvascular endothelial cells (hCMEC/D3, 75,000 cells/well) were seeded on the luminal side of the Transwell and co-cultured with astrocytes for five days with a daily change of the media. Transendothelial resistance was measured using EVOM voltohmmeter (World Precision Instruments, Berlin, Germany).
Transwells were washed with HBSS and immersed into HBSS (600 μL in abluminal side). […] Samples (100 μL) were collected from the abluminal side at specific time-points, and fresh HBSS (100 μL) was used to replace the volume from the abluminal compartments. […] PAX was analysed using reverse phase-HPLC with the gradient method described on Table 2. TR-TPGnRH was quantified in POLARstar Omega plate reader spectrophotometer with λexc 596 and λem 615 nm. The permeability coefficient (Papp) was determined using the equation: […]
ΔQr, is the flux of drug along time (μg mL^−1), Vr is the volume of the abluminal side (mL), A is the area of the Transwell membrane, C0 is the concentration of drug in the luminal side, and 60, the converser factor from minutes to seconds^8.

[7] = Release from 3D printed cellulose-sodium alginate bioinks; format: physicochemical; details: PBS
Experimental: Peptide nanofibers were embedded in cellulose nanocrystals and sodium alginate hydrogels. Cellulose nanocrystals were synthesised by sulphuric acid degradation (45% w/v, 150 mls) of cellulose (15 g, Western Hemlock) at 50° C. over 90 minutes under stirring. Cold-deionised water was used to quench reaction and acid was removed by centrifugation (4,000 rpm, 10 minutes). Cellulose nanocrystals were dialysed (12-14 kDa for cytochrome C, Medicell Ltd) over 5 L with 6 changes over 24 hours. Resulting suspension was probe sonicated (400 watt, 23% amplitude, 10 minutes) in 50 mLs aliquots. The resulting suspension was centrifuged (4,000 rpm, 10 minutes) and supernatant was stored in the refrigerator. Cellulose nanocrystals (CNCs, 4.5% w/w, 2 g) were loaded onto a syringe attached to a three-way valve, where a syringe loaded sodium alginate (6% w/w in 4.6% glucose, 1.7 g). The CNCs were injected in the sodium alginate syringe and mixed 10 times (in each direction). Sample was collected in one syringe and a new syringe containing calcium chloride (0.1M, 0.9 mL). Sample was pushed into calcium chloride and mixed 5 times (in each direction) prior collecting the gel in one syringe and loading in cartridges. Peptide nanofibers (5 mg) were dispersed in 0.9 mL of 0.1M calcium chloride and mixed as above when needed. Release of paclitaxel loaded and TPGnRH gels in PBS (1×, 7.4, 6 mLs) was quantified as per HPLC method described previously (Example 7, Table 2). After an initial burst release, a controlled release profile is observed with gradual slow release over days. Resulting inks can be utilised for the production of nanofiber loaded implants for tumour patients.

physchem = assay: physchem
Experimental: Paclitaxel (PAX)-loaded TPGnRH nanofibers were prepared by adding a PAX solution (250 μL, 2.562 mg mL^−1 in isopropyl alcohol, IPA) to the dry peptide to achieve a molar ratio of 1:1, 1:1.95, 1:3.68 or 1:7.36 of PAX:TPGnRH. After vortexing, bath and probe sonication (200 watts, amplitude 60%, UP200S Ultrasonic, SciMed, Stockport, UK) for 10 minutes, the IPA was removed by rotary evaporation. The film was re-hydrated in acetate buffer (50 mM, pH 4.5), and the final formulation was centrifuged for 5 minutes at 900 rpm to remove undissolved PAX. Supernatant was collected and the amount of PAX and TPGnRH was quantified by reverse phase-HPLC. […] Morphology of PAX-loaded formulations was evaluated using TEM and AFM, as described above.

[8] = human, MDA-MB-231 breast cancer cell homogenate
[9] = after pre-incubation with the free ligand named as label (antibody 1 μg mL^−1, peptides 50 μg mL^−1)
[10] = before addition of the free ligand named as label (no pre-incubation)

CC(C)C[C@H](NC(=O)CNC(=O)[C@H](Cc1ccc(O)cc1)NC(=O)[C@H](CO)NC(=O)[C@H](Cc1c[nH]c2ccccc12)NC(=O)[C@H](Cc1cnc[nH]1)NC(=O)[C@@H](N)CCC(=O)O)C(=O)N[C@@H](CCCNC(=N)N)C(=O)N1CCC[C@H]1C(=O)NCC(N)=O [Glu-GnRH, Glu-His-Trp-Ser^4-Tyr^5-Gly^6-Leu-Arg-Pro-Gly-NH2, reference compound]
Plateau ([1]; MDA-MB-231 cell homogenates): 552.9 µg/mL
k ([1]; MDA-MB-231 cell homogenates): 0.1551 min⁻¹
AUC(0-t) at 4.03 mM [1, 8]: 20000 µg·h/mL
C0 at 4.03 mM [1, 8]: 1420 µg/mL
half-life at 4.03 mM [1, 8]: 4.47 ± 1.27 min
Plateau [2]: 16.58 µg/mL
T1/2α [2]: 0.67 ± 0.03 min
kα [2]: 1.088 min⁻¹
Binding Force ([3]; SEBTA-023): 40.3 ± 11.70 pN
Binding Probability ([3]; SEBTA-023): 4.93 ± 0.91%
koff ([3]; SEBTA-023): 1.22 ± 0.31 s⁻¹
Binding Force ([3]; U-87 MG): 25.88 ± 0.94 pN
Binding Probability ([3]; U-87 MG): 13.3 ± 1.91%
koff ([3]; U-87 MG): 1.29 ± 0.34 s⁻¹
Binding Force ([3]; UP-007): 38.20 ± 9.16 pN
Binding Probability ([3]; UP-007): 12.84 ± 4.32%
koff ([3]; UP-007): 1.52 ± 0.2 s⁻¹
Binding Force ([3]; UP-029): 45.6 ± 4.64 pN
Binding Probability ([3]; UP-029): 6.93 ± 2.96%
koff ([3]; UP-029): 1.66 ± 0.25 s⁻¹
Plateau [4]: 3.952 µg/mL
k ([4]; analyte in brackets of label): 0.1928 min⁻¹
Plateau [5]: 3.952 µg/mL
k ([5]; analyte in brackets of label): 0.04021 min⁻¹
Binding Probability of TPGnRH nanofiber tip to U-87 MG cells (GnRH-R on U-87 MG cells; [9]): 3.4%
Binding Probability of TPGnRH nanofiber tip to U-87 MG cells (GnRH-R on U-87 MG cells; [10]): 12.6%
Plateau [6]: 3.952 µg/mL
k ([6]; analyte in brackets of label): 0.1928 min⁻¹

CC(C)C[C@H](NC(=O)[C@@H](COC(C)(C)C)NC(=O)[C@H](Cc1ccc(O)cc1)NC(=O)[C@H](CO)NC(=O)[C@H](Cc1c[nH]c2ccccc12)NC(=O)[C@H](Cc1cnc[nH]1)NC(=O)[C@@H]1CCC(=O)N1)C(=O)N[C@@H](CCCNC(=N)N)C(=O)N1CCC[C@H]1C(=O)NNC(N)=O [Goserelin, goserelin acetate, reference compound]
Binding Force ([3]; U-87 MG): 29.88 ± 2.34 pN
Binding Probability ([3]; U-87 MG): 4.4 ± 0.94%
koff ([3]; U-87 MG): 0.68 ± 0.08 s⁻¹
Binding Force ([3]; UP-007): 34.00 ± 15.5 pN
Binding Probability ([3]; UP-007): 7.48 ± 0.76%
koff ([3]; UP-007): 1.54 ± 0.12 s⁻¹
Binding Probability of TPGnRH nanofiber tip to U-87 MG cells (GnRH-R on U-87 MG cells; [9]): 3.8%
Binding Probability of TPGnRH nanofiber tip to U-87 MG cells (GnRH-R on U-87 MG cells; [10]): 16.2%

CC(=O)O[C@H]1C(=O)[C@@]2(C)[C@H]([C@H](OC(=O)c3ccccc3)[C@]3(O)C[C@H](OC(=O)[C@H](O)[C@@H](NC(=O)c4ccccc4)c4ccccc4)C(C)=C1C3(C)C)[C@]1(OC(C)=O)CO[C@@H]1C[C@@H]2O [PAX, Paclitaxel, reference compound]
Papp A→B at 50 μg mL^−1 (in vitro): 1.9 nm/s
% release from 3D printed bioink ([7]; 0 minutes): 0%
% release from 3D printed bioink ([7]; 1 minutes): 13.1 ± 15.6%
% release from 3D printed bioink ([7]; 5 minutes): 13.7 ± 5.6%
% release from 3D printed bioink ([7]; 10 minutes): 18.0 ± 10.6%
% release from 3D printed bioink ([7]; 15 minutes): 10.7 ± 2.3%
% release from 3D printed bioink ([7]; 30 minutes): 11.8 ± 5.2%
% release from 3D printed bioink ([7]; 45 minutes): 13.7 ± 8.4%
% release from 3D printed bioink ([7]; 60 minutes): 20.7 ± 9.6%
% release from 3D printed bioink ([7]; 90 minutes): 24.6 ± 5.1%
% release from 3D printed bioink ([7]; 120 minutes): 26.9 ± 9.4%
% release from 3D printed bioink ([7]; 240 minutes): 19.0 ± 10.9%
% release from 3D printed bioink ([7]; 360 minutes): 24.8 ± 7.3%
% release from 3D printed bioink ([7]; 1110 minutes): 28.0 ± 11.4%
% release from 3D printed bioink ([7]; 1440 minutes): 30.2 ± 9.8%
% release from 3D printed bioink ([7]; 2760 minutes): 37.1 ± 7.2%
solubility (physchem; aqueous buffer): 0.00092 ± 0.00135 mg/mL (≈ 1.08 µM)
solubility (physchem; aqueous with cosolvent or surfactant or cyclodextrin): 0.0293 ± 0.00363 mg/mL (≈ 34.3 µM)
